In patent publication US11571480B2, “Multi-ligand drug conjugates and uses thereof” (priority 2015, dated 2023):
pIC50: −log10 of the molar value. Numbered stars: 1 amine (or outer) side, 2 acyl side, 3 side chain; on linkers, the order of the positions; unused ones are H or OH. Bridge positions count the residues as written; N and C are the ends. Square brackets hold non-standard residues; d marks the D form. Peptide text beside a SMILES is read from it. I, II: the chains in the order shown. * marks the point of attachment. Hexanoyl(6-succinimido-3yl) = O=C1CC([*:1])C(=O)N1CCCCCC(=O)[*:2]; Pteroyl = Nc1nc2ncc(CNc3ccc(C(=O)*)cc3)nc2c(=O)[nH]1; Dolaproine = CO[C@@H]([C@@H]1CCCN1)[C@@H](C)C(=O)O; Dil = CC[C@H](C)[C@H](NC)[C@@H](CC(=O)O)OC; PABC = O=C(OCc1ccc(N[*:1])cc1)[*:2]; X1 = C[C@@H](N*)[C@@H](O)c1ccccc1; Cit = NC(=O)NCCC[C@H](N)C(=O)O; NMeV = CN[C@H](C(=O)O)C(C)C

How the values were obtained:
melanoma cell line A375 = test: Cytotoxicity test of conjugate LDC10BR; format: cell-based; settings: A375, incubated 15-30 min, then 2-3 days
Protocol: (§1) Culture medium: RPMI 1640 Medium, no folic acid
(§2) 1) human nasopharyngeal cancer cell line KB, melanoma cell line A375, and human lung cancer cell H460 were incubated at 37° C., 5% CO2 in RPMI 1640 medium containing 10% fetal bovine serum, the cells were passaged every 2-3 days.
(§3) 2) human nasopharyngeal cancer cell line KB, melanoma cell line A375, and human lung cancer cell H460 were plated at 1×10^3 cells per well (96-well plate) and incubated for 8-12 h at 37° C., 5% CO2.
(§4) 3) Stock solutions of LDC conjugates or control were prepared in PBS solution. 100 μL/well of serially diluted LDC conjugates or control was added to the cells in the plate and incubated for 15-30 min at 37° C., 5% CO2. The culture medium in the wells was then removed by aspiration and the cells were incubated in fresh culture medium without conjugates (150 μL/well) for 2-3 days at 37° C., 5% CO2.
(§5) 4) CellTiter 96® Aqueous One Solution Cell Proliferation Assay (Promega) was added to each well to measure the amount of […] cells, and the plate was incubated in an incubator for 1 h at 37° C., 5% CO2.
(§6) 5) the plate was read at 490 nm on a microplate reader, and the cell survivals were compared for cells with or without the treatment of LDC conjugates. The LDC drug concentrations that are required for 50% cell death (IC50 values) were determined.

[1] = test system: human nasopharyngeal cancer cell line KB; test: Cytotoxicity test of conjugate LDC10BR; format: cell-based; settings: incubated 15-30 min, then 2-3 days
Protocol: as §1, §2, §3, §4, §5, §6

[2] = test system: human lung cancer cell H460; test: Cytotoxicity test of conjugate LDC10BR; format: cell-based; settings: H460, incubated 15-30 min, then 2-3 days
Protocol: as §1, §2, §3, §4, §5, §6

[3] = test system: receptor positive cell lines; test: Cytotoxicity test of conjugate LDC10BR, comparison over cell lines; format: cell-based
Protocol: as §1, §2, §3, §4, §5, §6

[4] = test system: KB (folate receptor positive cell); test: Endocytosis test of conjugate LDC10B (FITC conjugates, confocal microscope); format: cell-based, human; parameters: endocytosis after pre-incubation with free Folate: dose or concentration left out as unconfirmed
Protocol: (§7) The involved conjugates are as follows: Folate-FITC (FITC-ACP-Lys (Folate)-OH), 10B-FITC, and 10A-FITC.
as §1
(§8) 1) human nasopharyngeal cancer cell line KB, melanoma cell line A375, human lung cancer cell H460, ovarian cancer cell SKOV3, breast cancer cell line HCC1954 were incubated at 37° C., 5% CO2 in RPMI 1640 medium containing 10% fetal bovine serum, the cells were passaged every 2-3 days.
(§9) 2) human nasopharyngeal cancer cell line KB, melanoma cell line A375, human lung cancer cell H460, ovarian cancer cell SKOV3, breast cancer cell line HCC1954 were plated at 1×10^3 cells per well (96-well plate) and incubated for 8-12 h at 37° C., 5% CO2.
(§10) 3) 1 μM of FITC conjugates or control was added to the cells in the plate and incubated for 10-15 min at 37° C. The culture medium in the wells was then removed by aspiration and the cells were washed with PBS for three times.
(§11) 4) cells were then imaged with confocal microscope (brand) to visualize endocytosis.

[5] = test system: A375 (folate receptor negative cell); test: as above; format: cell-based; settings: 1 μM FITC conjugate, 10-15 min at 37° C.
Protocol: as §7, §1, §8, §9, §10, §11

Compound | pIC50 (melanoma cell line A375) | pIC50 [1] | pIC50 [2] | cytotoxicity compared with bi-ligand conjugate LDC10B (in words) [3] | endocytosis (enters cells) ([4]; 1 μM FITC conjugate, 10-15 min at 37° C., KB cells) | endocytosis after pre-incubation with free Folate ([4]; pre-incubating KB cells with (50 fold excess of conjugate) free Folate, data not shown) | endocytosis (enters cells) [5]
CC[C@H](C)[C@@H]([C@@H](CC(=O)N1CCC[C@H]1[C@H](OC)[C@@H](C)C(=O)N[C@H](C)[C@@H](O)c1ccccc1)OC)N(C)C(=O)[C@@H](NC(=O)[C@H](C(C)C)N(C)C(=O)OCc1ccc(NC(=O)[C@H](CCCNC(N)=O)NC(=O)[C@@H](NC(=O)CCCCCN2C(=O)CC(SC[C@H](NC(=O)[C@H](CC(=O)O)NC(=O)CNC(=O)[C@H](CCCNC(=N)N)NC(=O)[C@H](CCC(=O)O)NC(=O)c3ccc(NCc4cnc5[nH]c(N)nc(=O)c5n4)cc3)C(=O)N[C@@H](CCCCN)C(=O)N[C@@H](CCC(=O)O)C(=O)N[C@@H](Cc3ccccc3)C(=O)N[C@@H](CC(C)C)C(=O)N[C@@H](Cc3c[nH]cn3)C(=O)N3CCC[C@H]3C(=O)N[C@@H](CO)C(=O)N[C@@H](CCCCN)C(=O)N[C@H](C(=O)N[C@@H](CC(=O)O)C(=O)N[C@@H](CC(C)C)C(=O)N3CCC[C@H]3C(=O)N[C@@H](CCCNC(=N)N)C(=O)O)C(C)C)C2=O)C(C)C)cc1)C(C)C (stereo partly shown) [LDC10BR] (I: Pteroyl-ERGDCKEFLHPSKVDLPR-OH / II: V[Cit][PABC][NMeV]V[Dil][Dolaproine]-X1; linker I:5-II:N via Hexanoyl(6-succinimido-3yl)) | 4.42 | 5.18 | 5.19 | comparable to the bi-ligand conjugate LDC10B | – | – | –
FITC-ACP-Lys (Folate)-OH [Folate-FITC] | – | – | – | – | enters KB cells | completely blocked | but not A375 cells
